“Also recorded” adds a separate entry of the source.
Columns and labels:
[1] = system: Nrf2 transcriptional activity (ARE); test: Nrf2 reporter gene assay (ARE luciferase) in HEK293T cells; format: cell-based, human; conditions: 24 h transfection
Description: The human embryonic kidney cell line HEK293T was obtained from the American Type Culture Collection (Manassas, VA, USA). For the Nrf2 reporter gene assay, 1 μg of a plasmid containing a promoter with an ARE driving luciferase expression was used. Exogenous proteins were expressed by transfecting HEK293T cells with 1 μg of Nrf2 and PAK4 with Lipofectamine 3000 (Invitrogen, Carlsbad, CA, USA). Luciferase activity was measured using a Dual-Luciferase Reporter Assay (Promega, Madison, WI, USA) by Lumat LB 9507 (Berthold, Bad Wildbad, Germany).

primary hepatocytes = test: MTT assay for cell viability; format: cell-based, mouse; conditions: SPA7012 at a concentration of less than 1 μM
Description: Primary hepatocytes were prepared from 8 to 10 week old C57BL/6 male mice by perfusion. […] Hepatocytes were resuspended in DMEM/F12 supplemented with 10% FBS, 10 units/mL penicillin, 10 μg/mL streptomycin, and 10 nM dexamethasone mixed with 42% Percoll, and then centrifuged for 5 min at 1,300 rpm. The cells were plated at 1 × 10^6 cells/well in 6-well culture dishes.
Cell viability was determined by analysing the reduction of 3–(4, 5-dimethylthiazol-2-yl)-2, 5-diphenyltetrazolium bromide (MTT) to formazan.

[2] = system: C57BL/6 male mice with hepatic I/R injury; test: Model of partial hepatic I/R injury in mice; format: in vivo, mouse
Description: Pathogen-free 8 to 10-week old C57BL/6 male mice (Orient Bio, Seoul, Korea) were kept under a 12-h light/dark cycle with controlled humidity of 50% at 22 °C, and had free access to food and water. Hepatic I/R injury was created using the following method.[15] Mice were anaesthetised with ketamine (100 mg/kg) and xylazine (10 mg/kg) by intraperitoneal injection. A midline incision was performed, and an atraumatic clip was placed across the portal vein, hepatic artery, and bile duct just above the right branch. Blood flow was interrupted to the left lateral and median lobes, which represent approximately 70% of the total blood supply to the liver. The liver was kept moist with a gauze soaked in saline, and body temperature was maintained at 37 °C with a warm blanket throughout ischaemia. After 60 min of partial hepatic ischaemia, the clip was removed to initiate reperfusion. The sham mice underwent the same operation without vascular occlusion. After the desired time period of reperfusion, the mice were euthanised by exsanguination under anaesthesia and serum samples were collected. The left lateral and median lobes of the liver were collected and stored at −80 °C until further analysis, or were immediately fixed in 10% formalin. All animal experiments were performed in accordance with the Guide for the Care and Use of Laboratory Animals published by the US National Institutes of Health (NIH Publication No. 85–23, revised 2011). The study protocol was approved by the Institutional Animal Care and Use Committee of Jeonbuk National University (permit number: JBNU-2019–00122).
Alanine aminotransferase (ALT) and aspartate aminotransferase (AST) in serum (Asan Pharm, Seoul, Korea), glutathione (GSH, Arbour Assays, Ann Arbour, MI, USA), malondialdehyde (MDA, ab118970, Abcam, Cambridge, UK) in liver tissues, and lactate dehydrogenase (LDH, Biovision, Milpitas, CA, USA) in culture medium were analysed using specific kits. Serum levels of IL-1β, IL-6, TNF-α, and CCL-2 were detected using ELISA kits (all from Invitrogen).
Total RNA was extracted from frozen liver tissues or primary hepatocytes using TRIzol reagent (Invitrogen). RNA was treated with isopropanol, dried using 70% ethanol, and dissolved in diethyl pyrocarbonate-treated distilled water. First-strand cDNA was generated using the random hexamer primer provided in the first-strand cDNA synthesis kit (Applied Biosystems, Foster City, CA, USA). Specific primers were designed using PrimerBank (https://pga.mgh.harvard.edu/primerbank, Table 1). qPCR reactions were performed in a final volume of 10μ L containing 10 ng reverse-transcribed total RNA, 200 nM forward and reverse primers, and PCR master mixture. qPCR was performed in 384-well plates using an ABI Prism™ 7900HT Sequence Detection System (Applied Biosystems).
Nuclear and cytoplasmic fractions were prepared using the NE-PER Nuclear and Cytoplasmic Extraction kit (Thermo Fisher Scientific, Waltham, MA, USA). Tissue homogenates or cell lysates (15 μg) were separated by 6–14% SDS-PAGE and transferred to PVDF membranes. After blocking with 5% skim milk, blots were probed with primary antibodies against: PAK4 (G222), p-PAK4 (S474), p-IKKβ (S176/180), p-IκBα (S32), p-p65 (S536), cleaved caspase-3 (Asp175), Bax (Cell Signalling Technology, Beverly, MA, USA), GAPDH (A531), lamin B1(L75), Bcl2(P65), NQO1 (F252) (Bioworld Technology, St Louis Park, MN, USA), NF-κB p65 (C-20), IKBα (H-4), IKKβ (10A9B6) (Santa Cruz Biotechnology, Dallas, TX, USA), Nrf2 (Proteintech, Rosemont, IL, USA), HO-1 (Enzo Life Sciences, Farmingdale, New York, USA), and p-Thr (Merck KGaA, Darmstadt, Germany). For co-immunoprecipitations, 600 μg protein was incubated with anti-Nrf2 antibodies (Proteintech, Sankt Leon-Rot, Germany) overnight at 4 °C followed by protein G agarose for 2 h at 4 °C. Blots were probed with antibodies against PAK4, Nrf2, or p-Thr. Immunoreactive bands were detected with a Las-4000 imager (GE Healthcare Life Science, Pittsburgh, PA, USA). […]

[3] = 50 mg/kg intraperitoneal before and during I/R, 1 h ischaemia, 6 h or 24 h reperfusion, vs I/R group

Cc1nn(-c2cccc(C#CC3(O)CCCCC3)c2)c2ncnc(N)c12 [Compound 14b, 3-(4-Amino-3-methylpyrazolo[3,4-d]pyrimidin-1-yl)phenylethynylcyclohexan-1-ol]
Nrf2 transcriptional activity (ARE luciferase activity) [1]: increased
Effect on cell viability (MTT) (primary hepatocytes): little effect
Serum ALT level [2, 3]: significantly decreased
Serum AST level [2, 3]: significantly decreased
Inflammatory cell infiltration (F4/80-positive macrophages, Ly6G-positive neutrophils) in liver ([2]; 50 mg/kg, 24 h after reperfusion, listed as SPA7012): decreased; also recorded: drastic reduction
Cytokine production (TNF-α, IL-1β, IL-6, CCL-2; serum protein and liver mRNA) ([2]; 50 mg/kg, I/R injured mice): decreased
Phosphorylation levels of IKKβ and p65 in liver ([2]; 50 mg/kg, Western blotting): substantially decreased
Protein levels of IκBα in liver ([2]; 50 mg/kg, Western blotting): increased
Nuclear level of Nrf2 in I/R injured liver tissues ([2]; 50 mg/kg, Western blotting of nuclear extracts, listed as SPA7012): considerably increased
4-HNE-positive cells in liver tissues ([2]; 50 mg/kg, vs I/R group): significantly lower
Area of necrosis in liver (H&E) ([2]; 50 mg/kg, vs I/R group): significantly smaller
Hepatic levels of GSH ([2]; 50 mg/kg, vs I/R group): significantly higher
MDA level ([2]; 50 mg/kg, vs I/R group): significantly lower
TUNEL-positive apoptotic cells in liver tissues ([2]; 50 mg/kg, vs I/R group): significant reduction
Total- and phospho-protein levels of PPARγ, PTEN, Akt, and GSK-3β ([2]; following SPA7012 treatment, data not shown): no changes
